Experimental findings from ChEMBL document CHEMBL1177698, “Inhibition of protein kinase C-driven nuclear factor-kappaB activation: synthesis, structure-activity relationship, and pharmacological profiling of pathway specific benzimidazole probe molecules” (J Med Chem, 2010) are described below.

Data set [1] is described as follows: Inhibition of NF-kappaB activation transfected in PMA-stimulated HEK293 cells after 16 hrs by luciferase reporter gene assay. It is filed as cell-based. As to conditions: HEK293, 16 h.
The nature of data set [2]: Cytotoxicity against human HEK293 cells after 24 hrs by ATP-lite 1-step assay. It counts as cell-based. As to conditions: read-out: LD50.
Data set [3] is described as follows: Drug level in mouse blood at 10 mg/kg, ip after 3 hrs by LC/MS analysis. It is filed as ADME, organism-based. The conditions noted are these: whole blood, read-out: Drug uptake. Set-up: dose 10 mg/kg, route intraperitoneal.
The nature of data set [4]: Aqueous solubility at pH 5 after 18 hrs by UV kinetic solubility method. It counts as physicochemical. The conditions noted are these: aqueous medium.
A short description of data set [5]: Permeability at 50 uM at pH 5 by PAMPA. It is filed as ADME. The conditions noted are these: pH 5, 50 µM.
The nature of data set [6]: Drug level in mouse blood at 10 mg/kg, ip after 0.5 hrs by LC/MS analysis. It is filed as ADME, organism-based. Set-up: dose 10 mg/kg, route intraperitoneal. The conditions noted are these: whole blood, read-out: Drug uptake.
A short description of data set [7]: Drug level in mouse blood at 30 mg/kg, ip after 3 hrs by LC/MS analysis. Set-up: dose 30 mg/kg, route intraperitoneal. As to conditions: whole blood, read-out: Drug uptake. It is filed as ADME, organism-based.
Another data set deals with HEK293. The data set is described as follows: Inhibition of NF-kappaB activation transfected in TNF-alpha-stimulated HEK293 cells after 16 hrs by luciferase reporter gene assay. It is filed as cell-based.
The nature of data set [8]: Metabolic stability in mouse liver microsomes assessed as compound remaining at 1 uM after 1 hr by LC/MS/MS analysis. It is filed as ADME, Microsome. As to conditions: read-out: Stability. In general terms: Liver microsomes are vesicles of endoplasmic reticulum, rich in cytochrome P450 enzymes.
Data set [9] deals with Protein kinase C theta type (Homo sapiens) (UniProt Q04759). Put plainly: Inhibition of PKCtheta up to 8 uM.
A short description of data set [10]: Metabolic stability in mouse liver microsomes assessed as compound remaining at 10 uM after 1 hr by LC/MS/MS analysis. It counts as ADME, Microsome. The conditions noted are these: read-out: Stability.
A short description of data set [11]: Drug level in mouse blood at 50 mg/kg, ip after 0.5 hrs by LC/MS analysis. It counts as ADME, organism-based. Set-up: dose 50 mg/kg, route intraperitoneal. The conditions noted are these: whole blood, read-out: Drug uptake.
Data set [12] can be described thus: Aqueous solubility at pH 7.4 after 18 hrs by UV kinetic solubility method. It counts as physicochemical. The conditions noted are these: aqueous medium.
Data set [13] is described as follows: Permeability at 50 uM at pH 7.4 by PAMPA. It is filed as ADME. The conditions noted are these: pH 7.4, 50 µM. (The PAMPA barrier holds no transporters, so it reflects passive diffusion.)
A short description of data set [14]: Metabolic stability in human liver microsomes assessed as compound remaining at 1 uM after 1 hr by LC/MS/MS analysis. As to conditions: read-out: Stability. It counts as ADME, Microsome.
A short description of data set [15]: Metabolic stability in human liver microsomes assessed as compound remaining at 10 uM after 1 hr by LC/MS/MS analysis. It counts as ADME, Microsome. As to conditions: read-out: Stability.
The target in data set [16] is T1, Inhibitor of nuclear factor kappa-B kinase subunit beta (Homo sapiens) (UniProt O14920).
T1 sequence (whole entry): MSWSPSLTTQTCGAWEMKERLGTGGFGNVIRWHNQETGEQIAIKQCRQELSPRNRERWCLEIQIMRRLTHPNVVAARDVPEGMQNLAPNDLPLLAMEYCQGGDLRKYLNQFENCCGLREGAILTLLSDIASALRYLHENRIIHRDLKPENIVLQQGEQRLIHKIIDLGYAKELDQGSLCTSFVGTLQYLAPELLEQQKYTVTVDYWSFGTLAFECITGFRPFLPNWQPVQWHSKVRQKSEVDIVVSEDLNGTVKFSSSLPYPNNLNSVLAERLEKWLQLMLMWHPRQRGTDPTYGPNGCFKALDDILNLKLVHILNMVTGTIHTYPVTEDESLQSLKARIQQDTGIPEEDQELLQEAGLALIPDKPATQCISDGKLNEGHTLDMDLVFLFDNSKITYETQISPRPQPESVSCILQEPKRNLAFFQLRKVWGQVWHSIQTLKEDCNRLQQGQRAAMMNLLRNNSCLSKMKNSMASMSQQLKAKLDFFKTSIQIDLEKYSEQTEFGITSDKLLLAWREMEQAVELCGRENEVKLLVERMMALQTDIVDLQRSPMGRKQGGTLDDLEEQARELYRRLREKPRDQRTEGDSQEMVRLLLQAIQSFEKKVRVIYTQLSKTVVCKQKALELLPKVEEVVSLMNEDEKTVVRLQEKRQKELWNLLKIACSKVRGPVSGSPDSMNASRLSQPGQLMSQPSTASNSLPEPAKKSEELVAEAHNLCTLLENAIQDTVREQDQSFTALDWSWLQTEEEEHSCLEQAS
Put plainly: Inhibition of IKK-beta up to 8 uM.

Data set [17] can be described thus: Permeability at 50 uM at pH 6.2 by PAMPA. It counts as ADME. The conditions noted are these: pH 6.2, 50 µM.
Data set [18] is described as follows: Drug level in mouse blood at 30 mg/kg, ip after 0.5 hrs by LC/MS analysis. It counts as ADME, organism-based. Further details: dose 30 mg/kg, route intraperitoneal. The conditions noted are these: whole blood, read-out: Drug uptake.
Data set [19] has as its target Tyrosine-protein kinase JAK2 (Homo sapiens) (UniProt O60674). The data set is described as follows: Inhibition of JAK2 at 10 uM.
Data set [20] is described as follows: Aqueous solubility at pH 6.2 after 18 hrs by UV kinetic solubility method. The conditions noted are these: aqueous medium. It is filed as physicochemical.
Data set [21] concerns the target T2, Serine/threonine-protein kinase tousled-like 1 (Homo sapiens) (UniProt Q9UKI8).
T2 sequence (whole entry): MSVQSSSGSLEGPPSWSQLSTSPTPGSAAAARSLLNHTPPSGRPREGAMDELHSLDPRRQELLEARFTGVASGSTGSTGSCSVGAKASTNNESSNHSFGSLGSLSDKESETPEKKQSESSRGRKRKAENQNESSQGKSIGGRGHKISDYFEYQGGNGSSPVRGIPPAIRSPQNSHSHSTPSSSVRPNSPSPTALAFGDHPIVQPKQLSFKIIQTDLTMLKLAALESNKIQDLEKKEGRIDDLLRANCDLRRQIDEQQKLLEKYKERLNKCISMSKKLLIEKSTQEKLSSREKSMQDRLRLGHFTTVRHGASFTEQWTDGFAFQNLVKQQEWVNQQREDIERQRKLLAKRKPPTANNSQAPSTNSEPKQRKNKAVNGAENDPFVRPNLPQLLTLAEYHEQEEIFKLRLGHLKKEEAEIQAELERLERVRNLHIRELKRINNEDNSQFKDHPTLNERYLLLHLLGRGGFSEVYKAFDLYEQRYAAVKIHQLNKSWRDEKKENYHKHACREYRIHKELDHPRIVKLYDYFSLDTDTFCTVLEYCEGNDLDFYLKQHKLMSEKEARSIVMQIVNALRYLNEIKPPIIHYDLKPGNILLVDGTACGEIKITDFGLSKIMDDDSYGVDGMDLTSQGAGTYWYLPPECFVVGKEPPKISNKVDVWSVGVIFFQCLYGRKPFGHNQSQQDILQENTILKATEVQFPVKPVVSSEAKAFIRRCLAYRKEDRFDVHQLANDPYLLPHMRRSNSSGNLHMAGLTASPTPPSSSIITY
The data set is described as follows: Inhibition of TLK1 at 10 uM.

Data set [22] addresses Protein kinase C beta type (Homo sapiens) (UniProt P05771). The data set is described as follows: Inhibition of PKCbeta up to 8 uM.
Data set [23] can be described thus: Cytotoxicity against human Fa2N-4 cells after 24 hrs by ATP-lite 1-step assay. It is filed as cell-based. The conditions noted are these: read-out: LD50.
Data set [24] deals with RAF proto-oncogene serine/threonine-protein kinase (Homo sapiens) (UniProt P04049). The data set is described as follows: Inhibition of raf kinase at 10 uM.
A short description of data set [25]: Drug level in mouse blood at 50 mg/kg, ip after 3 hrs by LC/MS analysis. It counts as ADME, organism-based. Further details: dose 50 mg/kg, route intraperitoneal. As to conditions: whole blood, read-out: Drug uptake.

Values after ≈ are worked out from the molar mass of the structure shown. Active and inactive are the calls of the source. No cut-off for these calls is given here.

Protein kinase C theta type (Homo sapiens), sequence (Q04759 whole entry, looked up): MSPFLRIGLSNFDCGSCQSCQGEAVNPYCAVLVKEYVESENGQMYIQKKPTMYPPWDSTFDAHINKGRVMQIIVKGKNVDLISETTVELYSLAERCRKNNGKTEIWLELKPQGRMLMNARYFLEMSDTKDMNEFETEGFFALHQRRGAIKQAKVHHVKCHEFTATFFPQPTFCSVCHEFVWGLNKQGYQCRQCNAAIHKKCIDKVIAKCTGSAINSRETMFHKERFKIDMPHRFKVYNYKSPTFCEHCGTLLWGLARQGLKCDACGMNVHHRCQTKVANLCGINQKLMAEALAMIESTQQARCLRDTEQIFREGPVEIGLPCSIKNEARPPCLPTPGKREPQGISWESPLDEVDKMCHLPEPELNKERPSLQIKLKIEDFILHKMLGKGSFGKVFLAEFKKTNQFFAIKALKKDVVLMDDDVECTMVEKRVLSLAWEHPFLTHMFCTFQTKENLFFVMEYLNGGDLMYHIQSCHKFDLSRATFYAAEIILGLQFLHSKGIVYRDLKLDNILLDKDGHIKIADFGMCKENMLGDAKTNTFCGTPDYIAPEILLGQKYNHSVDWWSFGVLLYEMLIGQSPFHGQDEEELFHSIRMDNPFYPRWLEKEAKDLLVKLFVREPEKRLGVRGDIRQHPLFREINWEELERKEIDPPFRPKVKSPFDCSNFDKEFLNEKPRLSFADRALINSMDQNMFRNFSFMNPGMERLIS
Protein kinase C beta type (Homo sapiens), sequence (P05771 2-671 limits assumed): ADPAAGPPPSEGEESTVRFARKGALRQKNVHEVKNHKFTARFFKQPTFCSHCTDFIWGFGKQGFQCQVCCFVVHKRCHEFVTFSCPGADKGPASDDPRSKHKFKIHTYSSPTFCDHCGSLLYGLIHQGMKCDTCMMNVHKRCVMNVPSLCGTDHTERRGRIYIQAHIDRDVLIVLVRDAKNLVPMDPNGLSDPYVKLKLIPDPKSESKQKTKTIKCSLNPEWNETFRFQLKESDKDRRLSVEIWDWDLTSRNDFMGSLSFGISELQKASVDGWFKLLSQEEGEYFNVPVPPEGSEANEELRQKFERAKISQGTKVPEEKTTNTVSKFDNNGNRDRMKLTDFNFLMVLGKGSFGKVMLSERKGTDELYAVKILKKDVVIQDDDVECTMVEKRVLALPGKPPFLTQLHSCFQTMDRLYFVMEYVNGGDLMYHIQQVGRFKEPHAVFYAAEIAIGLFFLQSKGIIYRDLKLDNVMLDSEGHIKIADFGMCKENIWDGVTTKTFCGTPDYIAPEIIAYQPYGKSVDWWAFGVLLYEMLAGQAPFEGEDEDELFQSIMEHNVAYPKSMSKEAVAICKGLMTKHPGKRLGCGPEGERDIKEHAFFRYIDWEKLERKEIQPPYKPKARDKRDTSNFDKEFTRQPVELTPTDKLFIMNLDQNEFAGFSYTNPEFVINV
Tyrosine-protein kinase JAK2 (Homo sapiens), sequence (O60674 whole entry): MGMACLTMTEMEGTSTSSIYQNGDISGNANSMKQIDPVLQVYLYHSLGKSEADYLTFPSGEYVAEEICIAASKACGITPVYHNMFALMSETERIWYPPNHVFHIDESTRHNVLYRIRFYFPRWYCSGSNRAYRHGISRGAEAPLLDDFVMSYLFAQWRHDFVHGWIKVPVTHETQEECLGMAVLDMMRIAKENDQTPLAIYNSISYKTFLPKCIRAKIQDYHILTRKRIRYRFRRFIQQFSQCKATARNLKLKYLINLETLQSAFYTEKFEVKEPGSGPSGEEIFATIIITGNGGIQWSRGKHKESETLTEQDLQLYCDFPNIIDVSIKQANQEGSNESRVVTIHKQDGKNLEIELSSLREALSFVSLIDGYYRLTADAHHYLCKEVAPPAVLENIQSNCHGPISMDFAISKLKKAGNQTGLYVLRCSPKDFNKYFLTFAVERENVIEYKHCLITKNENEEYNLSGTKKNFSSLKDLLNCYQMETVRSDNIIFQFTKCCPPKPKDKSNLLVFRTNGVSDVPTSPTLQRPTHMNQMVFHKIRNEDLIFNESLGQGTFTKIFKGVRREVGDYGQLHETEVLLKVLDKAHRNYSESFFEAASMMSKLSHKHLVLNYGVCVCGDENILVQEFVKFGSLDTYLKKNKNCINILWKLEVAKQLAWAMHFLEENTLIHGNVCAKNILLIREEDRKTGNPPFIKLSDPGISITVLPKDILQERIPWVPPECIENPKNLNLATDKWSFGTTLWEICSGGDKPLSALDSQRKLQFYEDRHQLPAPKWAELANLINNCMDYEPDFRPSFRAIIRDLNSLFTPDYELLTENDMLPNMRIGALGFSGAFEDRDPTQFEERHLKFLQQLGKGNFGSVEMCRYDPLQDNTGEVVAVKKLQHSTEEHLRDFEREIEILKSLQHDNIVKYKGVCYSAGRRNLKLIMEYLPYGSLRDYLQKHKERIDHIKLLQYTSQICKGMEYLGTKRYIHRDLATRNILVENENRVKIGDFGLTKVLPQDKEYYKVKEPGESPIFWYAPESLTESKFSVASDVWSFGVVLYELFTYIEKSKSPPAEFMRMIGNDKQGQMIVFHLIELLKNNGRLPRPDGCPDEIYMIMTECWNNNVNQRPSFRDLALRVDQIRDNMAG
RAF proto-oncogene serine/threonine-protein kinase (Homo sapiens), sequence (P04049 whole entry): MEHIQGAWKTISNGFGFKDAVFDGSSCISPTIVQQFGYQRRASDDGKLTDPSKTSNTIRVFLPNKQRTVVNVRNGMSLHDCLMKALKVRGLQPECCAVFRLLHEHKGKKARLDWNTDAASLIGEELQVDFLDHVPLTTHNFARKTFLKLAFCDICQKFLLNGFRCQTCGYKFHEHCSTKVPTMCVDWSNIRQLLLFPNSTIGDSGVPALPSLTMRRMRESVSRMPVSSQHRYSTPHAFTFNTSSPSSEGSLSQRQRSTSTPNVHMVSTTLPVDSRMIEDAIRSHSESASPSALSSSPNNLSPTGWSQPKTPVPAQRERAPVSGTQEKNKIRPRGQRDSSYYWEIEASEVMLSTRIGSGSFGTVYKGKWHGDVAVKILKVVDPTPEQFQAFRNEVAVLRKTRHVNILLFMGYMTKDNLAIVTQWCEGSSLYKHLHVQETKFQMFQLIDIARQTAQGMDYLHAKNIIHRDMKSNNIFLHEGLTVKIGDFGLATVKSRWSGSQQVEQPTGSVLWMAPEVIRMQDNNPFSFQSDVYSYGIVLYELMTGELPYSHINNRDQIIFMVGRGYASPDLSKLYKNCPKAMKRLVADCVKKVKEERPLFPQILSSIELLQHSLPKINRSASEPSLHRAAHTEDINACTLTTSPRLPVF

Broadly, the IC50 is the concentration needed to halve the response being measured. Take `CC(C)(C)c1cc(C(=O)Cn2c(NCCCO)nc3ccc(N)cc32)cc(C(C)(C)C)c1O`: it took 0.4 µM to reach half-maximal inhibition in data set [1] (IC50).

A word on the kinetic solubility: it is solubility judged after dilution from a stock solution rather than from solid. What is called inhibition is how much of the control response was suppressed. With `Cc1cc2nc(NCCCO)n(CC(=O)c3cc(C(C)(C)C)c(O)c(C(C)(C)C)c3)c2cc1C`, the CC50 at 24 h in [2] came out at 40 µM; in data set [23] it was 47 µM. For the same compound, the concentration at 3 h was 0.5 µM in data set [3], 3.64 µM in [7] and 6.96 µM in data set [25]. Also, the kinetic solubility at 18 h is 42 µg/mL (≈ 90.2 µM) in data set [4], 0.7 µg/mL (≈ 1.5 µM) in data set [12] and 0.5 µg/mL (≈ 1.07 µM) in [20]. Moreover, the permeability in [5] turned out to be 299 ×10⁻⁶ cm/s; in [13], 441 ×10⁻⁶ cm/s; in data set [17] it was 710 ×10⁻⁶ cm/s. The concentration at 0.5 h is 1.81 µM in data set [6], 5.93 µM in data set [11] and 8.28 µM in data set [18]. The inhibition entry (in the data set on HEK293; in data set [9]; in [16]; in data set [22]) was “inactive” each time. The remaining at 1 h, 1 µM in [8] amounted to 0.5%; in data set [14], 26%. Further, the remaining at 1 h, 10 µM was found to be 19% in data set [10] and 55% in [15]. Further, the inhibition in data set [19] worked out at 53%; in data set [21] it was 70%; in [24] it was 57%.

`Cc1cc2nc(NCCCO)n(CC(=O)c3cccc(OC(C)(C)C)c3)c2cc1C`: in [1], 16 µM corresponded to half-maximal inhibition (IC50).

`CCCCNc1nc2cc(C)c(C)cc2n1CC(=O)c1cc(C(C)(C)C)c(O)c(C(C)(C)C)c1` yielded an IC50 in [1] of 0.8 µM.

Regarding `Cc1cc2nc(NC3CCC(O)CC3)n(CC(=O)c3cc(C(C)(C)C)c(O)c(C(C)(C)C)c3)c2cc1C` (configuration not stated), the IC50 in data set [1] is 0.1 µM.

As for `Cc1cc2nc(NCCCO)n(CC(=O)c3cc(C(C)(C)C)cc(C(C)(C)C)c3)c2cc1C`, inhibition in data set [1] was half-maximal at 0.1 µM (IC50).

`Cc1cc2nc(NCCCO)n(CC(=O)c3cccc(C(C)(C)C)c3)c2cc1C` showed a concentration for half-maximal inhibition (IC50) in [1] of 11 µM.

Turning to `CC(C)(C)c1cc(C(=O)Cn2c(NCCCO)nc3cc(-c4ccccc4)ccc32)cc(C(C)(C)C)c1O`, the IC50 in data set [1] was 0.6 µM.

As to `CC(C)(C)c1cc(C(=O)Cn2c(NCCCO)nc3ccc([N+](=O)[O-])cc32)cc(C(C)(C)C)c1O`, in data set [1], the IC50 was over 8 µM.

The compound `Cc1cc2nc(N3CCC(O)CC3)n(CC(=O)c3cc(C(C)(C)C)c(O)c(C(C)(C)C)c3)c2cc1C` came in with an IC50 in data set [1] of 13 µM.

For the compound `CC(C)(C)c1cc(C(=O)Cn2c(NCCCO)nc3ccc(-c4ccccc4)cc32)cc(C(C)(C)C)c1O`, the midpoint of inhibition in data set [1], the IC50, lay at 0.9 µM.

Turning to `CC(C)(C)c1cc(C(=O)Cn2c(NCCCO)nc3cc(N)ccc32)cc(C(C)(C)C)c1O`, half-maximal inhibition in [1] (IC50) required 0.8 µM.

On to `CC(C)(C)c1cc(C(=O)Cn2c(NCCCO)nc3cc(Br)ccc32)cc(C(C)(C)C)c1O`, for which, in [1], 3 µM corresponded to half-maximal inhibition (IC50).

For `CNc1nc2cc(C)c(C)cc2n1CC(=O)c1cc(C(C)(C)C)c(O)c(C(C)(C)C)c1`, inhibition in data set [1] was half-maximal at 0.3 µM (IC50).

`CC(C)(C)c1cc(C(=O)Cn2c(NCCCO)nc3ccc(Br)cc32)cc(C(C)(C)C)c1O` displayed an IC50 in data set [1] of 6 µM.

On to `COCCCNc1nc2cc(C)c(C)cc2n1CC(=O)c1cc(C(C)(C)C)c(O)c(C(C)(C)C)c1`, for which the IC50 in data set [1] was 0.3 µM.

In turn, `CC(C)(C)c1cc(C(=O)Cn2c(NCCCO)nc3cc([N+](=O)[O-])ccc32)cc(C(C)(C)C)c1O` came in with an IC50 in data set [1] of 2 µM.

In the case of `CC(C)(C)c1cc(C(=O)Cn2c(NCCCO)nc3cc(C(=O)c4ccccc4)ccc32)cc(C(C)(C)C)c1O`, it took 1.8 µM to reach half-maximal inhibition in data set [1] (IC50).
